The results in this text go back to US20070270431A1, “Preventive and/or Therapeutic Medicine for Rheumatoid Arthritis” (Kowa Co., Ltd., priority 2004, published 2007).

The test system of this assay is rats of a collagen-induced arthritis model. The experiment in a line: Suppression of both-hindlimb edema in rats of a collagen-induced arthritis model. It counts as in vivo, rat. The settings on record: 30 days after initial sensitization, pyridazinone 30 mg/kg twice daily, methotrexate 0.05 mg/kg once daily. As for the experimental part:
The effect on suppressing edema of both hindlimbs by 2-benzyl-5-(4-chlorophenyl)-6-4-(methylthio)phenyl]-2H-pyridazin-3-one (synthesized through the aforementioned method) and methotrexate were determined both in the cases of combined administration and solo administration through the following procedure. For the experiment-rats of a collagen-induced arthritis model were used. (FDA, CBER, CDER, CDRH: Guidance for industry—Clinical development programs for drugs devices and biological products for the treatment of rheumatoid arthritis (RA)-(1999)). Lewis female rats (LFW/Crj) (obtained from Charles River Laboratories Japan, Inc.) were employed as test animals.
For each 8-week-old LEW/Crj rat, the volume of a portion from the ankle to the toe tip of each hindlimb was measured by means of a plethysmometer for small animals (TK-101CMP, product of Unicom) and the total volume was employed as a volume of the hindlimbs (hereinafter referred to as both-hindlimb volume) at the start of the test (hereinafter referred to as Pre value). By use of the Pre value as an index, the rats were divided into groups by one-parameter-based block randomization so that the values in the groups were averaged out.
The collagen emulsion for sensitization employed for inducing arthritis in rats was prepared by homogenizing a 0.3% Type II collagen liquid (product of Collagen Research Center), adjuvant peptide (product of Peptide Institute, Inc.), and adjuvant incomplete Freund (product of DIFCO) by means of a Handy Micro Homogenizer (product of Microtec Nition) under cooling with ice. The thus-prepared emulsion was intracutaneously injected to 10 sites in the back of each rat at 0.1 mL/site, to thereby initially sensitize the rat. Seven days after initial sensitization the same emulsion (0.12 mL) was intracutaneously injected to the tail head of the rat for booster sensitization
Administration of medicines was carried out on the day after initial sensitizaton to day 29. To the 2-benzyl-5-(4-chlorophenyl)-68 4-(methylthio)phenyl]-2H-pyridazin-3-one solo administration group, the medicine was orally administered twice; in the morning (9:00 to 11:00) and in the evening (15:30 to 17:30) at a dose of 30 mg/kg. […]
Thirty days after initial sensitization, both-hindlimb volume was measured. Volume of both-hindlimb edema was calculated by subtracting the Pre value from the thus-measured value.
Table 1 and FIG. 1 show both-hindlimb edema volume of rats which was measured 30 days after initial sensitization where the rats were divided into the 2-benzyl-5-(4-chlorophenyl)-6-[4-(methylthio)phenyl]-2H-pyridazin-3-one solo administration group, the methotrexate solo administration group, and the combined administration group. […]

`CSc1ccc(-c2nn(Cc3ccccc3)c(=O)cc2-c2ccc(Cl)cc2)cc1` [2-benzyl-5-(4-chlorophenyl)-6-[4-(methylthio)phenyl]-2H-pyridazin-3-one]: the Both-hindlimb edema volume (oral administration from day after sensitization to day 29, average of seven rats ± standard error) is reported as 1.04 ± 0.32 mL. Under “oral”, the “Edema suppression effect (in words)” value is reported as “did not result in potent edema suppression effects” and the “Relative index (average edema volume of administration group / control group)” value is 0.66. Further, the Percent edema suppression (vs control group, oral) is on record as 34%.
